# From patent publication US20170281611A1, “QUINOLINES AND THEIR USE FOR TREATING ENDOPLASMIC RETICULUM STRESS-CAUSED DISEASES” (EIGER BIOPHARMACEUTICALS, INC., priority 2014, published 2017)
# How the values were obtained:
# SERCA = assay: Ca-ATPase assay, microsomal preparations from HEK 293 cells; type: biochemical, human
# Protocol: A Ca-ATPase assay was performed using microsomal preparations from HEK 293 cells at a series of calcium concentrations corresponding to the physiological range, relative to controls. The ATP hydrolysis rate was measured over a range of calcium concentrations in the presence of test compounds using an NADH-linked, enzyme-coupled ATPase assay adapted for 96-well microplates, with Vmax determined by fitting the ATPase calcium-dependence to the Hill function. […] CaCl2 was added to set free [Ca^2+] to the specific values.
# ob/ob mice [1] = assay: Effect of a SERCA agonist on the level of blood glucose; type: in vivo, mouse; conditions: 10 or 50 mg/kg i.p. once a day for 5 days
# Protocol: Fasting glucose was measured at baseline and 10 hours after the administration of the test compound. Glucose levels were measured in blood samples drawn from the tail vein using the OneTouch Ultra 2 Meter (LifeScan, Inc.).
# ob/ob mice [2] = assay: Insulin tolerance test (ITT); type: in vivo, mouse; conditions: day 10 post-injection, compared with vehicle
# Protocol: Both glucose (GTT) and insulin (ITT) tolerance tests were performed following a 10-hr fast and an additional 2-hr after CDNs injection with baseline blood glucose measurement taken before the beginning of the test. For the GTT, D-glucose dissolved in 0.9% NaCl was delivered intraperitoneally at a dose of 1 g/kg. The blood glucose level was measured 0, 15, 30, 60, 90, and 120 min after glucose administration. For the ITT, insulin was administered intraperitoneally at a dose of 1 IU/kg. The blood glucose level was measured 0, 15, 30, 60, 90, and 120 min after insulin administration. Glucose levels were measured in blood samples drawn from the tail vein using OneTouch Ultra 2 Meter (LifeScan, Inc.).
# PERK, elF2α, CHOP = assay: Liver protein markers of ER stress (western blot); type: in vivo, mouse; conditions: liver of ob/ob mice, 50 mg/kg
# Protocol: Proteins were analyzed by western blot and quantified. Bands were normalized to GAPDH and expressed as 100% of ob/ob+vehicle (ob). Liver tissues were homogenized with a bench-top homogenizer in an ice-cold tissue lysis buffer. The homogenized samples were centrifuged at 8,000×g for 20 min at 4° C. The lipid layer was removed and the supernatant was transferred into Eppendorf tubes. After centrifuging at 16,000×g for 60 min at 4° C., the supernatants were normalized to the same concentration and boiled at 100° C. in 1× Laemmli buffer for 5 min. The lysate was cooled to room temperature before loading for Western blot analysis. Protein lysate was resolved on SDS polyacrylamide gel and transferred onto PVDF membrane at a voltage of 100 V for 2 hrs at 4° C. The membrane was blocked in 10% blocking reagent and incubated overnight with a primary antibody in Tris-buffered saline solution/Tween (TBST)/10% blocking reagent at 4° C. After incubation, the membrane was washed three times in TBST for 20 min and incubated at room temperature with a secondary antibody in TBST/10% blocking reagent for 1 hr. The membrane was washed three times for 20 min and developed using a chemiluminescence assay system. To strip a membrane for another primary antibody, the membrane was agitated at 50° C. for 20 min in a box with stripping buffer (2% SDS and 100 mM 2-mercaptoethanol in TBS, pH 7.5). […]
# [3] = Pharmacokinetics of compound A12 in Sprague Dawley rats; type: in vivo, rat; conditions: oral, 2 mg/kg P.O.
# Protocol: Pharmacokinetics of a test compound, compound A12, was assessed in Sprague Dawley rats. The compound was formulated at 1 mg/mL in DMSO/Tween 80/water (10/10/80, vol/vol/vol) and dosed at 1 mg/kg intravenous (i.v.) or 2 mg/kg by oral gavage (P.O.) in triplicate. Blood was drawn at 5 min, 15 min, 30 min, 1 hr, 2 hrs, 4 hrs, 6 hrs, and 8 hrs into EDTA containing tubes and plasma was harvested by centrifugation. Plasma (25 μL) was treated with acetonitrile (125 μL) containing an internal standard. The sample was then centrifuged for 5 min at 4,000 rpm in a tabletop centrifuge and the filtrate was collected. The filtrate was injected onto a Thermo Betasil C18 HPLC column 5μ (50×2.1 mm). Mobile Phase A was water with 0.1% formic acid. Mobile Phase B was acetonitrile with 0.1% formic acid. Separation was achieved using a gradient of 90% A/10% B to 5% A/95% B over 7 min. An API Sciex 4000 equipped with a turbo ion spray source was used for all analytical measurements. A positive ion MRM method was developed. Peak areas of the product ion were measured against the peak areas of the internal standard. Data was fit using WinNonLin (Pharsight Corporation, Mountain View, Calif.).
# [4] = system: 6-OHDA lesioned Wistar rats; assay: Rat unilateral 6-OHDA model of Parkinson's disease, stepping test; type: in vivo; conditions: D11, 10 mg/kg IP once daily for 15 days; 6-OHDA/Vehicle 1.19±0.24 steps
# Protocol: Fifty adult male Wistar rats were used. The rats from different groups (G1 to G5) were randomized. At the beginning of the study, the rats were about 5 weeks old and naive to previous administration of any drug.
# A stereotaxic injection of 6-OHDA (G2 to G5) or saline (G1: sham group) was performed to induce a unilateral dopaminergic lesion on day 0 (D0). Surgery was performed on D0 under ketamine (50 mg/kg) and xylazine (10 mg/kg). The rats of G2 to G5 received a unilateral injection of 6-OHDA (6 μL) in the left substantia nigra pars compacta. Jouve et al., J. Neurosci. 2010, 30, 9919-9928. The rats of the G1 sham group were injected with saline. During surgery, local analgesia was achieved using subcutaneous injections of lidocaine. At the end of surgery, the rats were treated with buprenorphine (0.05 mg/kg, S.C.).
# The stepping test was performed after IT test, both before the 6-OHDA lesion induction on D0 and on D11. Around D−6, the stepping test was performed eight consecutive times for the right paw of each animal to obtain baseline values. On D11, the stepping test was performed one hour after the rats were dosed. Each rat was hold by an experimenter and only one of the two forelimbs was left free to move above a plane surface and the other was held with the paw touching the table. The rats were then to be moved slowly forward by the experimenter. The number of adjusting steps was countered for the right paw. Olsson et al., J. Neurosci. 1995, 15, 3863-3875.
# L-DOPA and benserazide (a peripheric DOPA decarboxylase inhibitor) were prepared together as a single solution containing 0.9% NaCl and 0.1% ascorbic acid.
# All the dosings were given via the IP route, once daily, Sunday excluded.
smiles,measurement,setting,value
"Cc1ccc2cccc(NC(=O)c3ccc(OC(C)C)cc3)c2n1 [Compound A12, 4-Isopropoxy-N-(2-methylquinolin-8-yl)benzamide]",Vmax of a SERCA,SERCA,significantly increased
same,fasting blood glucose,ob/ob mice [1],significantly lowered blood glucose as early as day 2
same,maintenance of lower glucose level after last injection,ob/ob mice [1],"maintained a lower glucose level, to a level identical to lean mice, for over a week after the last injection"
same,insulin-stimulated glucose deposal (ITT),ob/ob mice [2],strongly enhanced
same,expression of CHOP,"PERK, elF2α, CHOP",significantly reduced
same,phosphorylation of PERK and elF2α,"PERK, elF2α, CHOP",significantly reduced
same,T112,[3],1.17 h
same,number of adjusting steps,[4],6.94±0.86 steps
